Marks after values point to notes of the source that are not given here.
Tested on: mast cell
Test: Mast cell degranulation in rats (histamine released)
Assay type: in vivo
Conditions: 25 mg/kg p.o., mean ± S.E.M.
Experimental: Mast cell degranulation: Tyrode solution (10 ml) containing 5 units/ml of heparin was injected in the peritoneal cavity of sensitized male rats lightly anaesthetized with ether. After a gentle abdominal massage for about 30 to 45 sec, the mast cell rich peritoneal fluid was collected over ice and centrifuged at 2000 rpm for 5 min. The cells were washed thrice with chilled Tyrode and resuspended in about 1 ml of Tyrode solution. The peritoneal fluid was obtained from 10 rats and the final volume of the fluid was pooled and used for the studies (Nair A M et al, 1997).

CN(C)CCC(c1ccccc1)c1ccccn1.O=C(O)/C=C\C(=O)O (stereo not shown) [Avil]
Histamine released: 0.345 ± 0.04^b μg/ml
